Data on one substance can be found in US7718764B2, “Biologically active peptide [sequence] derivatives” (CMS Peptides Patent Holding Company Limited, priority 2004, dated 2010).

This experiment concerns Masugi nephritis rabbits. Briefly: Masugi nephritis in rabbits: urine protein. In kind it is in vivo. The following applies: for proteinuria Week 0: saline treatment 11.72 ± 3.18; for proteinuria Week 1: saline treatment 122 ± 91; for proteinuria Week 2: saline treatment 160 ± 138; for proteinuria Week 3: saline treatment 145 ± 33; for proteinuria Week 4: saline treatment 157 ± 71. The protocol: Twenty-two healthy rabbits were randomized into 5 groups: peptide (107.3 μg/kg/day and 58.5 μg/kg/day, 4 rabbits per group), dexamethasone (0.1 mg/kg/day, 4 rabbits), saline treatment (1 ml/day, 7 rabbits), and normal healthy (3 rabbits). Before the establishment of a disease state in the rabbits, measurements of serum BUN, creatinine, and urine protein over 24 hours were taken for each rabbit. If there was no abnormality in these measurements, the Masugi nephritis model was established in experimental rabbits by intravenous injection of sheep anti-rabbit renal cortex antiserum via the auricular vein, 0.5 ml per injection, one injection every 30 minutes, for a total of 4 injections per rabbit. The normal healthy (control) rabbit group was injected with saline in the same manner. Intravenous administration of the test substances via the auricular vein was started on the day after the injection of the antiserum, once per day, 1 ml per injection, for 30 consecutive days.
Urine was collected from each rabbit over a 24 hour period once per week and the protein content determined by the sulfosalicylic acid method.
Statistical significance was determined by the t-test of the SPSS software.

For PLNPK [CMS-010.26], for the setting “58.5 μg/kg/day i.v.”, the “proteinuria Week 0” value came to 9.53 ± 4.64 mg/dL, the “proteinuria Week 1” value stood at 77 ± 62 mg/dL, the “proteinuria Week 2” value came out at 150 ± 123 mg/dL and the “proteinuria Week 3” value was 20 ± 12 mg/dL. The “proteinuria Week 4” value (58.5 μg/kg/day i.v.) is 36 ± 16 mg/dL. For the setting “107.3 μg/kg/day i.v.”, the “proteinuria Week 0” value worked out at 9.84 ± 4.29 mg/dL, the “proteinuria Week 1” value stood at 187 ± 184 mg/dL, the “proteinuria Week 2” value was 114 ± 145 mg/dL and the “proteinuria Week 3” value is 26 ± 24 mg/dL. Further, under “107.3 μg/kg/day i.v.”, the “proteinuria Week 4” value turned out to be 28 ± 32 mg/dL. Further, the “Effect on severity of proteinuria in Masugi nephritis rabbits” value (vs saline treatment control P<0.05) is given as “decrease”.
